From the OPERA property sets (Mansouri et al. 2018)

Settings: for log10 biotransformation half-life (days) / log10 BCF: fish

| Structure (SMILES) | melting point [°C] | boiling point [°C] | also measured |
| --- | --- | --- | --- |
| CC(Oc1cc(Cl)c(Cl)cc1Cl)C(=O)O (configuration not stated) | 182 | – | log10 Koc (L/kg): 1.75; ready biodegradability: not readily biodegradable |
| CC(=O)OC[C@H]1O[C@@H](n2ncc(=O)[nH]c2=O)[C@H](OC(C)=O)[C@@H]1OC(C)=O | 100 | – | – |
| CCN(CC)C(=O)[C@@H]1C=C2c3cccc4[nH]c(Br)c(c34)C[C@H]2N(C)C1 | 124 | – | – |
| Cc1ccc(S(=O)(=O)N(C)N=O)cc1 | 60 | – | – |
| Clc1cc2c(Cl)c(Cl)c(Cl)c(Cl)c2cc1Cl | – | – | log10 Koa: 9.58; log10 vapour pressure (mmHg): -6.46 |
| COc1cc(C=O)ccc1O[C@@H]1O[C@H](CO)[C@@H](O)[C@H](O)[C@H]1O | 189 | – | – |
| Cc1cc2cccc(C)c2cc1C | – | 285 | – |
| FC(F)(F)C(F)(F)C(F)(F)C(F)(F)C(F)(F)C(F)(F)I | -46 | 118 | – |
| O=C1CCC1 | -50.9 | 99 | log10 vapour pressure (mmHg): 1.63 |
| CN(C)C(C)(C)CO | 19 | 160 | – |
| O=C(O)Cc1ccccc1Oc1ccc(Cl)cc1Cl | 112 | – | – |
| Cn1cnc2c1c(=O)[nH]c(=O)n2C | 357 | – | – |
| COc1cc(S(C)=O)ccc1-c1nc2ncccc2[nH]1 (configuration not stated) | 204 | – | – |
| O=C1C=CC(=O)c2c(O)cccc21 | 155 | – | – |
| O=C(Cn1c(=O)sc2ccc(Cl)cc21)N1CCN(CCO)CC1 | 160 | – | – |
| CCOP(=S)(OCC)Oc1cnc2ccccc2n1 | 31.5 | – | log10 vapour pressure (mmHg): -5.58 |
| CCCCCCCCCCC/C=C\CCCCC(=O)O | 29.8 | – | – |
| O=C(Nc1ccccc1Cl)c1ccccc1 | 99 | – | – |
| CC=C(C)C(C)(C)C | – | 112 | – |
| C=CCCCO | – | 141 | – |
| CC(C)=C(C)Cl | – | 96 | – |
| FC(Cl)(Cl)CCl | -140 | 88 | – |
| Cc1ccccc1CO | 38 | 224 | – |
| CCCCI | -103 | 131 | log10 vapour pressure (mmHg): 1.14 |
| CCOP(=S)(OCC)Oc1ccc(S(C)(=O)=O)cc1 | – | – | log10 Koc (L/kg): 2.17 |

| Structure (SMILES) | melting point [°C] | boiling point [°C] | also measured |
| --- | --- | --- | --- |
| CCC(CC)CO | – | 147 | log10 vapour pressure (mmHg): 0.185 |
| CC(C)(O)CO | – | 176 | – |
| Fc1cccc(F)c1 | -69 | 82.6 | log10 vapour pressure (mmHg): 1.92 |
| Cn1cnc2ncnc-2c1N | – | – | log10 vapour pressure (mmHg): -11.8 |
| C=C(CCl)CCl | -14 | 138 | – |
| COc1ccccc1CCN | – | 236 | – |
| CC(C)(C)N(NC(=O)c1ccccc1)C(=O)c1ccc(Cl)cc1Cl | 134 | – | – |
| CCN(CC)c1ccc(C=O)cc1 | 41 | – | ready biodegradability: not readily biodegradable |
| C=C(C)CCC(=C)C | -75.6 | 114 | – |
| Cc1ccc(C)c(C)c1C | -6.2 | 205 | log10 biodegradation half-life (days): 0.602; log10 vapour pressure (mmHg): -0.443; log10 biotransformation half-life (days): 1.17 |
| COc1ccc(C=O)cc1O | 114 | – | – |
| C1=CCC1 | – | 2 | – |
| CC(C)=NO | 61 | 136 | – |
| Brc1ccc(Oc2ccccc2Br)cc1 | – | – | log10 Koa: 8.47 |
| CC(N)=O | 81 | 222 | log10 Koc (L/kg): 0.7; log10 vapour pressure (mmHg): -1.4; ready biodegradability: readily biodegradable |
| CC(C)CCc1ccccc1 | – | 195 | – |
| CCP(c1ccccc1)c1ccccc1 | – | 293 | – |
| O=C1C=CC(=O)C(c2ccccc2)=C1 | 114 | – | – |
| CCCCCCCCCCCCCCCCCCCCCC(=O)OCC | 50 | – | – |
| C=Cc1cccc([N+](=O)[O-])c1 | -10 | – | ready biodegradability: not readily biodegradable |
| CC(C)(C)C(=O)NNCc1ccccc1 | 68.5 | – | – |
| CC/C=C\CC=O | – | 121 | – |
| CC1=CCCC=C1 | – | 108 | – |
| N#CSCSc1nc2ccccc2s1 | – | – | ready biodegradability: not readily biodegradable; log10 BCF: 2.32; log10 biotransformation half-life (days): -1.01 |
| Cc1c(N)cccc1N | 106 | 260 | log10 vapour pressure (mmHg): -2.61 |

| Structure (SMILES) | melting point [°C] | boiling point [°C] | also measured |
| --- | --- | --- | --- |
| FC(F)(F)CS | – | 34.5 | – |
| CCCCCCCCCCCCCCCC/C=C/C1CC(=O)OC1=O (configuration not stated) | – | – | ready biodegradability: not readily biodegradable |
| N#Cc1ccccc1O | 98 | – | – |
| CCOC(=O)CC(=O)c1ccc(OC)cc1 | – | – | ready biodegradability: readily biodegradable |
| CCOc1ccccc1OCC | 44 | 219 | – |
| O=C(O)c1cc2ccccc2cc1O | 222 | – | ready biodegradability: not readily biodegradable; log10 BCF: 0.6 |
| CCCC(=O)c1ccccc1 | 12 | 228 | – |
| c1ccc2sc(SN3CCOCC3)nc2c1 | 85 | – | log10 vapour pressure (mmHg): -5.48; ready biodegradability: not readily biodegradable |
| CCCCCCCCCCCCC(=O)O | 44.5 | 312 | log10 vapour pressure (mmHg): -4.9 |
| CN1CCN(C2=Nc3ccccc3Sc3ccc(Cl)cc32)CC1 | 119 | – | – |
| CCCCCOC(=O)CC | -73.1 | 169 | log10 vapour pressure (mmHg): 0.556 |
| CCN(C(=O)SCc1ccccc1)C(C)C(C)C (configuration not stated) | – | – | log10 vapour pressure (mmHg): -5.12 |
| C=C1C(=O)O[C@@H]2C[C@@]3(C)CCC[C@H](C)C3=C[C@H]12 | 76 | 275 | – |
| CC(C)=C1C=C2CCC3C(C)(C(=O)O)CCCC3(C)C2CC1 (configuration not stated) | – | – | log10 BCF: 2.17 |
| COc1cccc(C=O)c1 | – | 231 | ready biodegradability: readily biodegradable |
| NC(=O)CBr | 89 | – | – |
| C=C(Cl)C(C)Cl (configuration not stated) | – | 112 | – |
| O=C(O)c1cccc(Cl)c1 | 158 | – | ready biodegradability: readily biodegradable |
| OCCCCCCCCCO | 45.8 | – | – |
| O=C(O)CCCCCCCCCCO | 65.5 | – | – |
| O=C(O)Cc1ccc(Cl)cc1 | 106 | – | – |
| CC(C)C1=CC2=C(CC1)[C@@]1(C)CCC[C@@](C)(C(=O)O)[C@@H]1CC2 | 164 | – | log10 BCF: 1.4 |
| Cc1ccc(N=C=S)cc1 | 25.5 | 237 | – |
| O=[N+]([O-])c1ccc(Oc2ccc(C(F)(F)F)cc2Cl)cc1 | 68 | – | – |
| Clc1cc2cc(Cl)c(Cl)cc2cc1Cl | – | – | log10 Koa: 8.45 |

| Structure (SMILES) | melting point [°C] | boiling point [°C] | also measured |
| --- | --- | --- | --- |
| CCCOC(=O)CC | -75.9 | 122 | log10 vapour pressure (mmHg): 1.14 |
| C[C@]12CC[C@H](O)C[C@H]1CC[C@@H]1[C@@H]2C[C@@H](O)[C@]2(C)[C@@H](C3=CC(=O)OC3)CC[C@]12O | 222 | – | – |
| NC(=O)c1ccccc1Cl | 143 | – | log10 Koc (L/kg): 1.51 |
| CC1(C)CCC(C)(C)O1 | – | 112 | – |
| ClCC(Cl)=C(Cl)Cl | – | 167 | log10 vapour pressure (mmHg): 0.428 |
| CCCc1ccccn1 | 2 | 167 | – |
| CCOC(=O)CCCCCCCCCCCCCCCCC(=O)OCC | 54.5 | – | – |
| OC1(c2ccc(Cl)c(C(F)(F)F)c2)CCN(CCCC(c2ccc(F)cc2)c2ccc(F)cc2)CC1 | 106 | – | – |
| CC[SiH](CC)CC | – | 109 | – |
| CCOP(=S)(Oc1ccc(Cl)cc1Cl)c1ccccc1 (configuration not stated) | – | – | ready biodegradability: not readily biodegradable |
| COc1cc2c(c3oc(=O)c4c(c13)CCC4=O)[C@@H]1CCO[C@@H]1O2 | 288 | – | – |
| CNC(N)=S | 120 | – | – |
| O=C1C=CC(=Nc2ccc(O)cc2)C=C1 | 160 | – | – |
| CN1C2CCCC1CC(=O)C2 | 54 | 246 | – |
| Clc1ccc(-c2cc(Cl)ccc2Cl)c(Cl)c1 | – | – | log10 Henry constant (atm·m³/mol): -3.68; log10 Koa: 8.39; log10 vapour pressure (mmHg): -5.07 |
| Cc1cc(C)c(NC(=O)CN(CC(=O)O)CC(=O)O)c(C)c1Br | 199 | – | – |
| CC1CCCC2(C)CCCCC12O (configuration not stated) | – | 270 | – |
| OC(CCN1CCCCC1)(c1ccccc1)c1ccccc1 | 120 | – | – |
| C=CC(C)(CCC=C(C)C)OC(C)=O (configuration not stated) | – | 220 | log10 vapour pressure (mmHg): -0.955 |
| OC1CCC(Cl)CC1 (configuration not stated) | 82.5 | – | – |
| CC(=O)Oc1ccccc1C(=O)O | 135 | – | log10 vapour pressure (mmHg): -4.6; ready biodegradability: readily biodegradable |
| O=C(O)c1ccc2c(c1)C(=O)OC2=O | 162 | 390 | log10 vapour pressure (mmHg): -5.01; ready biodegradability: readily biodegradable |
| O=[N+]([O-])c1cccc2cccc([N+](=O)[O-])c12 | 173 | – | – |
| FC(F)(F)C(F)(Cl)C(Cl)(Cl)C(F)(F)F (configuration not stated) | 4 | 98 | – |
| c1ccc2c(c1)Cc1ccccc1-2 | 115 | 295 | log10 Henry constant (atm·m³/mol): -4.02; log10 Koa: 6.79; log10 Koc (L/kg): 3.7; log10 biodegradation half-life (days): 1.64; log10 vapour pressure (mmHg): -3.22; ready biodegradability: not readily biodegradable; log10 BCF: 2.72; log10 biotransformation half-life (days): 0.7 |

| Structure (SMILES) | melting point [°C] | boiling point [°C] | also measured |
| --- | --- | --- | --- |
| CC1(C)CCC(C)(C)C1 | -88.4 | 118 | – |
| Nc1ccc(N)cc1 | 146 | 267 | ready biodegradability: not readily biodegradable |
| O=[N+]([O-])C(F)(F)F | – | – | log10 vapour pressure (mmHg): 3.85 |
| c1cnc2ccc3ncccc3c2c1 | 177 | – | – |
| CCN(CC)CCNc1ccc(CO)c2sc3ccccc3c(=O)c12 | 102 | – | – |
| C[N+](C)(C)CCOC(=O)NCCCCCCNC(=O)OCC[N+](C)(C)C.[Br-].[Br-] | 175 | – | – |
| C[Se]C | – | 55 | log10 Henry constant (atm·m³/mol): -2.76; log10 vapour pressure (mmHg): 2.38 |
| CCCC(=O)CCC(C)C | – | 178 | – |
| C=C(C)[C@@H]1CC=C(C)C(=O)C1 | – | – | log10 vapour pressure (mmHg): -0.988 |
| CCOC(=O)N1CCNCC1 | – | 237 | – |
| CNN | -52.4 | 87.5 | log10 vapour pressure (mmHg): 1.7; ready biodegradability: not readily biodegradable |
| O=C(CO)[C@@H](O[C@H]1O[C@H](CO)[C@@H](O)[C@H](O)[C@H]1O)[C@H](O)[C@H](O)CO | 168 | – | – |
| Cc1c(F)c(F)c(F)c(F)c1F | -29.8 | 118 | – |
| Cc1c[nH]cn1 | 56 | 263 | – |
| CN(C)c1ccccc1[N+](=O)[O-] | -20 | – | – |
| CCN(CC)CC#N | – | 170 | – |
| CC#CCCCCCCCC | -30.1 | 204 | – |
| CCOC(=O)Nc1ccccc1 | 53 | 238 | log10 Koc (L/kg): 1.82 |
| Oc1ccc(/N=N/c2ccccc2)cc1 | 155 | – | log10 vapour pressure (mmHg): -6.64 |
| O=S(=O)(O)c1cccc(S(=O)(=O)O)c1 | – | – | ready biodegradability: not readily biodegradable |
| CC[C@H]1C[N@@]2CC[C@H]1C[C@H]2[C@H](O)c1ccnc2ccc(OCCC(C)C)cc12 | 152 | – | – |
| CC1(C)CCCC(=O)C1 | – | 180 | – |
